The nature of series [1]: Pharmacokinetic experiments in CD-1 mice. The conditions noted are these: male, mouse, plasma; for half-life: read-out: Terminal t1/2 (converted). The series is classed as in vivo. How it is done: Experiment animals: CD-1 mice, male, 6-7 weeks of age; body weight: 20-25 g; Preparation of samples: the test compounds respectively were formulated to 0.2 mg/mL (for intravenous administration) and 1.0 mg/mL (for oral administration) for use. Administration routes: oral administration/intravenous administration. Amount and frequency of administration: 5 mL/kg for single administration.
Sample collection: blood was collected at the time points of 5 min, 15 min, 30 min, 1 h, 2 h, 4 h, 8 h and 24 h, about […] whole blood was collected from 3 animals at each time point. All of the animals were euthanized after the experiments.
Sample analysis: the collected samples were detected by LC-MS/MS, and the instrument model is SHIMADZU20A-API4000.
Pharmacokinetic data analysis: the obtained plasma concentration data were fitted and calculated using WinNolin according to non-compartment model.

Series [2] concerns the target EGFR kinases (Homo sapiens, UniProt P00533). The series is described as follows: Reversible inhibition test of enzyme activity of EGFR kinases. Type of series: biochemical.
In series [3] the test system is N87(gastric cancer). The series is described as follows: Transplanted tumor in nude mice, N87 model. The series is classed as in vivo, nude mice (BALB/c). The source says:
Furthermore, more pharmacological models of tumor cell lines in nude mice were utilized to validate the inhibitory effects of compound Ie. The test method was specifically described as follows: H1975, A549, HCC827, A431, N87, MDA-MD-468 and CAL27 tumor cells respectively were inoculated into nude mice (BALB/c, male, 5-6 weeks of age), and when the mean tumor volume reaches 150 mm^3 mice was randomized into groups. The H1975 tumor model in nude mice includes one positive control group and three dosage groups of compound Ie (6.7 mg/kg/day, 13.4 mg/kg/day, and 20.1 mg/kg/day. The A549 tumor model in nude mice includes one positive control group, two dosage groups of compound Ie (10 mg/kg/day, 20 mg/kg/day), and one dosage group of Docetaxel (12 mg/kg/day). The HCC827 tumor model in nude mice includes one positive control group, two dosage groups of compound Ie (0.5 mg/kg/day, 2.5 mg/kg/day), and one dosage group of Erlotinib (12.5 mg/kg/day). The A431 tumor model in nude mice includes one positive control group, two dosage groups of compound Ie (2.5 mg/kg/day, 5 mg/kg/day), and one dosage group of Erlotinib (50 mg/kg/day). […] The tumor size and body weight of nude mice were recorded twice weekly from the first day of administration. The tumor volume was calculated using formula (1×w^2), wherein 1 and w respectively represents the maximum and minimum size in each measurement. […]

Molecules are shown by their SMILES. Where two headings read alike, the source gives them in different places.

Chain of EGFR kinases (P00533 25-1210): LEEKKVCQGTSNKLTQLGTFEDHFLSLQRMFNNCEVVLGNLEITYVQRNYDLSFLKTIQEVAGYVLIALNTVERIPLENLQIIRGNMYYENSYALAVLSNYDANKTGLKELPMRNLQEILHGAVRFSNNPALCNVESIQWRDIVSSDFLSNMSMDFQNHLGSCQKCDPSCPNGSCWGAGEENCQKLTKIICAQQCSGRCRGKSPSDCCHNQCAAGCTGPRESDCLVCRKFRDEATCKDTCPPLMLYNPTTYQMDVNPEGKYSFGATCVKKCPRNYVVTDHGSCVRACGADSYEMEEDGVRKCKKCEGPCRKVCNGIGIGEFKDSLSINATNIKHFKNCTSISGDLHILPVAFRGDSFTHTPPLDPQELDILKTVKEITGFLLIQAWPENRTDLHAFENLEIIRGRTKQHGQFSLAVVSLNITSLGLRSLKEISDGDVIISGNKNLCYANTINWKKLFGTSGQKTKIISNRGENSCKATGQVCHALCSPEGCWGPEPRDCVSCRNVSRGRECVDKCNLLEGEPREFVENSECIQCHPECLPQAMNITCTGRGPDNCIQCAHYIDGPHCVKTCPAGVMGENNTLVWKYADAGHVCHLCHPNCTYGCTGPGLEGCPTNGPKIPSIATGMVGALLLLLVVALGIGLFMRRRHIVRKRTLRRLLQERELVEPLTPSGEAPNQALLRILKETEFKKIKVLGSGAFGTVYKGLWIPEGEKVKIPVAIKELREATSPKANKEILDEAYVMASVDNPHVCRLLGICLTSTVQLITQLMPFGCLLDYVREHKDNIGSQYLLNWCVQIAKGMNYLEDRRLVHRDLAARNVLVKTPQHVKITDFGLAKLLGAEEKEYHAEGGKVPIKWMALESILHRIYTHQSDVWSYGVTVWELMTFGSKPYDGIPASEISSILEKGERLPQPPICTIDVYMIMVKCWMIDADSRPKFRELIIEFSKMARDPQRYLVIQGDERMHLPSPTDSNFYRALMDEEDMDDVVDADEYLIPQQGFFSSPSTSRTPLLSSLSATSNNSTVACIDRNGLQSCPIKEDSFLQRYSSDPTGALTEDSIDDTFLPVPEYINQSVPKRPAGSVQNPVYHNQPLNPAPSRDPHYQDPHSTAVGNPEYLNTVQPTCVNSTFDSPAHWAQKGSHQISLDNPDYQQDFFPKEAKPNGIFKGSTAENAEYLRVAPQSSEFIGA

In series [1] (1 mg/kg Intravenous Injection), `CN(C)C/C=C/C(=O)Nc1cc2c(Nc3ccc(F)c(Cl)c3)ncnc2cc1OC(F)F` [Compound Ie] had an AUC(0-inf) of 167 ng·h/mL, an AUC(0-t) of 137 ng·h/mL, an MRT inf of 2.88 h and a clearance of 115 mL/min/kg. Also, the half-life in series [1] (1 mg/kg Intravenous Injection) is 2.31 h. For the same compound, the Vd in series [1] (1 mg/kg Intravenous Injection, read-out: Vss) stood at 18.9 L/kg. Also, in series [1] (5 mg/kg Oral Administration), the AUC(0-inf) amounted to 1600 ng·h/mL, the AUC(0-t) is 1150 ng·h/mL, the Cmax worked out at 92.3 ng/mL and the Tmax stood at 4.33 h. Also, the half-life in series [1] (5 mg/kg Oral Administration) was 7.11 h. In series [2], the “reversibility of inhibition of EGFR kinases” value is recorded as “irreversibility”. Moreover, the “inhibitory and therapeutic effects on N87 tumor model” value in series [3] (5, 10 mg/kg/day orally for 21 days) is “strong inhibitory effects and therapeutic effects”. Further, in series [3] (versus Lapatinib (90 mg/kg/day, twice daily)), the “inhibitory effects on tumor cell growth compared with other drugs, N87 model” value is listed as “stronger inhibitory effects”.

Broadly, the AUC(0-inf) is total exposure, with the tail of the curve extrapolated. A word on the AUC(0-t): it is the area under the concentration-time curve up to a stated or last time point. A low value points to low exposure. As a reminder, the MRT inf is a mean duration of stay, worked out from the concentration-time curve. One may read the clearance as the rate of elimination divided by the concentration. A high value points to a high capacity for elimination. In general, Cmax refers to the highest concentration seen after dosing. Usually Tmax stands for the time from dosing to the highest level.

The record behind these values is US20150065709A1, “Aminoquinazoline Derivative And Use Thereof In Preparing Anti-Malignant Tumor Medicament” (METABOMICS, INC, priority 2012, published 2015).
